Measured values as given in patent publication US4204038A, “Process for preparing antibiotics MA 144-M1 and MA 144-M2” (Zaidan Hojin Biseibutsu Kagaku Kenkyu Kai, priority 1976, dated 1980).
In brackets after ≈: the same amount, converted by molar mass. Where a name gives a salt, the structure may show the parent alone. Read-outs that look alike come from different tables or passages of the source.

Legend:
Sarcoma 180 = assay: Therapeutic effectiveness on Sarcoma 180 solid tumor; format: in vivo, dd mice; conditions: intraperitoneally, day 1 to day 10; for Weight of tumor: control 1.68
Experimental: (c) Therapeutic effectiveness on Sarcoma 180 solid tumor
dd mice were inoculated with 2×10^6 cells of Sarcoma 180, and drug was administered intraperitoneally from day 1 to day 10.

P388 = assay: Therapeutic effectiveness on P388-bearing mice; format: in vivo; conditions: intraperitoneally, day 1 to day 9, CDF1-P388
Experimental: (b) Therapeutic effectiveness on P388-bearing mice
Drug was administered intraperitonally

Antitumor activity = format: in vivo; conditions: in words
L1210 cells [1] = assay: Cytotoxicity: growth of cultured L1210 cells; format: cell-based, mice; conditions: for IC50: Mus musculus, read-out: ID50, Growth; for inhibition of the growth of cultured L1210 cells: at the low concentration, in words
Toxicity = conditions: in words
in vivo [2] = conditions: Rat
L1210 cells [3] = assay: DNA synthesis in cultured L1210 cells; format: cell-based, mice; conditions: Mus musculus, L1210, read-out: ID50, DNA synthesis
Experimental: (§1) In this experiment, L1210 cells were inoculated in RPMI 1640 medium (Nissui, Roswell Park Memorial Institute 1640) containing 10% calf serum and cultivated at 37° C. for 3 days in a CO2 incubator, and MA 144-M1, MA 144-M2 and ^14 C-precursor were added at various concentrations. Effects on the synthesis of protein, RNA and DNA were indicated by the 50% inhibition concentration (μg./ml.) as shown in the following table.

L1210 = assay: Therapeutic effectiveness on L1210-bearing mice; format: in vivo; conditions: intraperitoneally, day 0 to day 10, CDF1-L1210
Experimental: (a) Therapeutic effectiveness on L1210-bearing mice
Drug was administered intraperitoneally

[4] = Basicity and lipophilicity
L1210 cells [5] = assay: Protein synthesis in cultured L1210 cells; format: cell-based, mice; conditions: Mus musculus, L1210, read-out: % inhibition, Protein synthesis
Experimental: as §1

L1210 cells [6] = assay: RNA synthesis in cultured L1210 cells; format: cell-based, mice; conditions: for inhibition of RNA synthesis: L1210 cells, in words
Experimental: as §1

in vivo [7] = conditions: Mouse
[8] = system: Ps. fluorescens NIH JB-254; assay: Minimum inhibitory concentration by the broth dilution method; format: cell-based; conditions: Pseudomonas fluorescens
From the text: (§2) (1) MA 144-M1 and MA 144-M2 have antimicrobial activity against various kinds of microorganisms.

Mic. flavus = assay: as above; format: cell-based; conditions: Micrococcus flavus, read-out: Minimum inhibitory concentration (MIC)
From the text: as §2

Bac. cereus ATCC 9634 = assay: as above; format: cell-based; conditions: Bacillus cereus
From the text: as §2

Cory. bovis = assay: as above; format: cell-based; conditions: Corynebacterium bovis, read-out: Minimum inhibitory concentration (MIC)
From the text: as §2

Can. tropicalis IAM 4942 = assay: as above; format: cell-based; conditions: Candida tropicalis
From the text: as §2

[9] = system: Mycobact. smegmatis ATCC 607; assay: as above; format: cell-based; conditions: read-out: Minimum inhibitory concentration (MIC)
From the text: as §2

Staph. aureus FDA 209P = assay: as above; format: cell-based; conditions: Staphylococcus aureus, FDA209P, read-out: Minimum inhibitory concentration (MIC)
From the text: as §2

Proteus morganii = assay: as above; format: cell-based; conditions: Morganella morganii, read-out: Minimum inhibitory concentration (MIC)
From the text: as §2

Sarcina lutea ATCC 341 = assay: as above; format: cell-based; conditions: Micrococcus luteus
From the text: as §2

Bac. subtilis ATCC 6633 = assay: as above; format: cell-based; conditions: Bacillus subtilis
From the text: as §2

Strept. pyogenes NY 5 = assay: as above; format: cell-based; conditions: Streptococcus pyogenes
From the text: as §2

Staph. aureus Smith = assay: as above; format: cell-based; conditions: Staphylococcus aureus, read-out: Minimum inhibitory concentration (MIC)
From the text: as §2

[10] = system: Bac. megaterium NRRL B-938; assay: as above; format: cell-based; conditions: Priestia megaterium
From the text: as §2

Can. albicans IAM 4905 = assay: as above; format: cell-based; conditions: Candida albicans
From the text: as §2

gram-positive bacteria = assay: Antimicrobial activity against gram-positive bacteria; format: cell-based; conditions: in words
From the text: as §2

## CCC1(O)CC(OC2CC(N(C)C)C(OC3CC(O)C(OC4CCC(O)C(C)O4)C(C)O3)C(C)O2)c2c(cc3c(c2O)C(=O)c2c(O)cccc2C3=O)C1C(=O)OC (stereo not shown) [MA 144-M1]
Sarcoma 180; 0.3 mg/kg/day
  % Inhibition of tumor growth: 25.5%
  Weight of tumor: 1.25 g
Sarcoma 180; 0.6 mg/kg/day
  % Inhibition of tumor growth: 53.7%
  Weight of tumor: 0.78 g
Sarcoma 180; 1.25 mg/kg/day
  % Inhibition of tumor growth: 51.9%
  Weight of tumor: 0.81 g
Sarcoma 180; 2.5 mg/kg/day
  % Inhibition of tumor growth: 61.3%
  Weight of tumor: 0.65 g
Sarcoma 180; 5 mg/kg/day
  % Inhibition of tumor growth: 77.4%
  Weight of tumor: 0.38 g
P388; 0.313 mg/kg/day
  Prolongation of the survival time: 110%
P388; 0.625 mg/kg/day
  Prolongation of the survival time: 135%
P388; 1.25 mg/kg/day
  Prolongation of the survival time: 149%
P388; 2.5 mg/kg/day
  Prolongation of the survival time: 184%
P388; 5 mg/kg/day
  Prolongation of the survival time: 100%
Antitumor activity
  antitumor activity: marked antitumor activity
L1210 cells [1]; L1210, 72 h
  IC50: 0.12 mg/L (≈ 0.147 µM)
L1210 cells [1]
  inhibition of the growth of cultured L1210 cells: inhibited markedly
Toxicity
  toxicity: low toxicity
In vivo [2]; ip
  LD50: 25 to 30 mg/kg
In vivo [2]; iv
  LD50: 25 to 30 mg/kg
L1210 cells [3]
  IC50: 1.7 mg/L (≈ 2.09 µM)
L1210; 0.156 mg/kg/day
  Prolongation of the survival time: 110%
L1210; 0.313 mg/kg/day
  Prolongation of the survival time: 110%
L1210; 0.625 mg/kg/day
  Prolongation of the survival time: 123%
L1210; 1.25 mg/kg/day
  Prolongation of the survival time: 137%
L1210; 2.5 mg/kg/day
  Prolongation of the survival time: 192%
L1210; 5 mg/kg/day
  Prolongation of the survival time: 200%
L1210; 10 mg/kg/day
  Prolongation of the survival time: 90%
Solubility
  solubility: slightly soluble in: slightly soluble in water, diethyl ether and n-hexane
  solubility: soluble in: soluble in acidic water, dimethyl sulfoxide, methylcellosolve, methanol, ethanol, ethyl acetate, acetone, chloroform, benzene, toluene
[4]
  basicity: Weakly basic
  lipophilicity: lipophilic
L1210 cells [5]
  inhibition at 10 µg/mL: 10%
L1210 cells [6]
  inhibition of RNA synthesis: completely inhibited RNA synthesis
L1210 cells [6]; Mus musculus, L1210, read-out: ID50, RNA synthesis
  IC50: 0.7 mg/L (≈ 0.86 µM)
In vivo [7]; ip
  LD50: 35 mg/kg
In vivo [7]; iv
  LD50: 30 to 35 mg/kg
[8]; NIHJB254, read-out: Minimum inhibitory concentration (MIC)
  MIC: > 100 mg/L
Mic. flavus
  MIC: 0.2 mg/L (≈ 0.246 µM)
Bac. cereus ATCC 9634; ATCC9634, read-out: Minimum inhibitory concentration (MIC)
  MIC: 0.78 mg/L (≈ 0.958 µM)
Cory. bovis
  MIC: 0.4 mg/L (≈ 0.491 µM)
Can. tropicalis IAM 4942; IAM4942, read-out: Minimum inhibitory concentration (MIC)
  MIC: > 100 mg/L
[9]
  MIC: 2.5 mg/L (≈ 3.07 µM)
Staph. aureus FDA 209P
  MIC: 3.1 mg/L (≈ 3.81 µM)
Proteus morganii
  MIC: > 100 mg/L
Sarcina lutea ATCC 341; ATCC341, read-out: Minimum inhibitory concentration (MIC)
  MIC: 0.05 mg/L (≈ 0.0614 µM)
Bac. subtilis ATCC 6633; ATCC6633, read-out: Minimum inhibitory concentration (MIC)
  MIC: 0.4 mg/L (≈ 0.491 µM)
Strept. pyogenes NY 5; NY5, read-out: Minimum inhibitory concentration (MIC)
  MIC: 1.25 mg/L (≈ 1.54 µM)
Staph. aureus Smith
  MIC: 0.2 mg/L (≈ 0.246 µM)
[10]; NRRLB938, read-out: Minimum inhibitory concentration (MIC)
  MIC: 3.1 mg/L (≈ 3.81 µM)
Can. albicans IAM 4905; IAM4905, read-out: Minimum inhibitory concentration (MIC)
  MIC: 100 mg/L (≈ 123 µM)
gram-positive bacteria
  antimicrobial activity against gram-positive bacteria: show antimicrobial activity against gram-positive bacteria

## CCC1(O)CC(OC2CC(N(C)C)C(OC3CC(O)C(OC4CCC(O)C(C)O4)C(C)O3)C(C)O2)c2c(cc3c(c2O)C(=O)c2c(O)cccc2C3=O)C1C(=O)OC (stereo not shown) [MA 144-M1 hydrochloride salt]
Solubility
  solubility: slightly soluble in: slightly soluble in acetone and ethyl acetate
  solubility: soluble in: soluble in water, methanol and chloroform

## CCC1(O)CC(OC2CC(N(C)C)C(OC3CC(O)C(OC4CCC(O)C(C)O4)C(C)O3)C(C)O2)c2c(cc3c(c2O)C(=O)c2c(O)ccc(O)c2C3=O)C1C(=O)OC (stereo not shown) [MA 144-M2]
Sarcoma 180; 0.3 mg/kg/day
  % Inhibition of tumor growth: 16%
  Weight of tumor: 1.41 g
Sarcoma 180; 0.6 mg/kg/day
  % Inhibition of tumor growth: 46.5%
  Weight of tumor: 0.90 g
Sarcoma 180; 1.25 mg/kg/day
  % Inhibition of tumor growth: 76.8%
  Weight of tumor: 0.39 g
Sarcoma 180; 2.5 mg/kg/day
  % Inhibition of tumor growth: 83.3%
  Weight of tumor: 0.28 g
Sarcoma 180; 5 mg/kg/day
  Weight of tumor: toxic
P388; 0.313 mg/kg/day
  Prolongation of the survival time: 125%
P388; 0.625 mg/kg/day
  Prolongation of the survival time: 148%
P388; 1.25 mg/kg/day
  Prolongation of the survival time: 206%
P388; 2.5 mg/kg/day
  Prolongation of the survival time: 83%
P388; 5 mg/kg/day
  Prolongation of the survival time: 57%
Antitumor activity
  antitumor activity: marked antitumor activity
L1210 cells [1]; 72 h, cultured L1210 cells, 37° C., 3 days
  IC50: 0.05 mg/L (≈ 0.0602 µM)
L1210 cells [1]
  inhibition of the growth of cultured L1210 cells: inhibited markedly
Toxicity
  toxicity: low toxicity
In vivo [2]; ip
  LD50: 10 to 15 mg/kg
In vivo [2]; iv
  LD50: 10 to 15 mg/kg
L1210; 0.156 mg/kg/day
  Prolongation of the survival time: 116%
L1210; 0.313 mg/kg/day
  Prolongation of the survival time: 144%
L1210; 0.625 mg/kg/day
  Prolongation of the survival time: 192%
L1210; 1.25 mg/kg/day
  Prolongation of the survival time: 200%
L1210; 2.5 mg/kg/day
  Prolongation of the survival time: 85%
L1210; 5 mg/kg/day
  Prolongation of the survival time: 46%
[4]
  basicity: Weakly basic
L1210 cells [6]
  inhibition of RNA synthesis: completely inhibited RNA synthesis
In vivo [7]; ip
  LD50: 12.5 mg/kg
In vivo [7]; iv
  LD50: 12 to 20 mg/kg
[8]; NIHJB254, Ps. fluorescens NIH JB-254, broth dilution, read-out: Minimum inhibitory concentration (MIC)
  MIC: > 100 mg/L
Mic. flavus; Mic. flavus, broth dilution
  MIC: 0.2 mg/L (≈ 0.241 µM)
Bac. cereus ATCC 9634; ATCC9634, Bac. cereus ATCC 9634, broth dilution, read-out: Minimum inhibitory concentration (MIC)
  MIC: 0.05 mg/L (≈ 0.0602 µM)
Cory. bovis; Cory. bovis, broth dilution
  MIC: 0.1 mg/L (≈ 0.12 µM)
Can. tropicalis IAM 4942; IAM4942, Can. tropicalis IAM 4942, broth dilution, read-out: Minimum inhibitory concentration (MIC)
  MIC: 100 mg/L (≈ 120 µM)
[9]; Mycobact. smegmatis ATCC 607, broth dilution
  MIC: 1.25 mg/L (≈ 1.51 µM)
Staph. aureus FDA 209P; Staph. aureus FDA 209P, broth dilution
  MIC: 0.78 mg/L (≈ 0.94 µM)
Proteus morganii; Proteus morganii (the Institute for Infectious Diseases), broth dilution
  MIC: > 100 mg/L
Sarcina lutea ATCC 341; ATCC341, Sarcina lutea ATCC 341, broth dilution, read-out: Minimum inhibitory concentration (MIC)
  MIC: 0.05 mg/L (≈ 0.0602 µM)
Bac. subtilis ATCC 6633; ATCC6633, Bac. subtilis ATCC 6633, broth dilution, read-out: Minimum inhibitory concentration (MIC)
  MIC: 0.05 mg/L (≈ 0.0602 µM)
Strept. pyogenes NY 5; NY5, Strept. pyogenes NY 5, broth dilution, read-out: Minimum inhibitory concentration (MIC)
  MIC: 0.63 mg/L (≈ 0.759 µM)
Staph. aureus Smith; Staph. aureus Smith, broth dilution
  MIC: 0.1 mg/L (≈ 0.12 µM)
[10]; NRRLB938, Bac. megaterium NRRL B-938, broth dilution, read-out: Minimum inhibitory concentration (MIC)
  MIC: 0.78 mg/L (≈ 0.94 µM)
Can. albicans IAM 4905; IAM4905, Can. albicans IAM 4905, broth dilution, read-out: Minimum inhibitory concentration (MIC)
  MIC: 50 mg/L (≈ 60.2 µM)
gram-positive bacteria
  antimicrobial activity against gram-positive bacteria: show antimicrobial activity against gram-positive bacteria
